This note sets out measurements from patent US20230391739A1, “ARYL DERIVATIVES FOR TREATING TRPM3 MEDIATED DISORDERS” (Katholieke Universiteit Leuven, priority 2020, published 2023).

Structures are written as SMILES.

The test has as its target T1, mouse TRPM3α2 (mTRPM3) ion channel (Mus musculus, UniProt J9SQF3).
T1 construct: expressed in transfected cells; host or cells: flip-in HEK293
Description: TRPM3 ion channel driven Ca2+ uptake, Fluo-4 AM assay, PS-stimulated (mTRPM3). The test is classed as cell-based. The conditions noted are these: TRPM3 overexpressing flip-in HEK293 cells stimulated with Pregnenolone sulfate (PS) 50 μM, activity ranges A, B, C. On the procedure: Monitoring the TRPM3 Ion Channel Driven Ca^2+ Uptake.
In order to monitor the inhibition of the mouse TRPM3α2 (mTRPM3) ion channel by the compounds of the invention, a cellular system making use of an mTRPM3alpha2 or hTRPM3 overexpressing cell line (flip-in HEK293) was used. The TRPM3 channel was stimulated/opened with Pregnenolone sulfate (PS) (50 μM) which results in Ca^2+ influx.
For mTRPM3, the intracellular Ca^2+ was measured with a Calcium responsive dye, Fluor-4 AM ester (Invitrogen). Cells were cultured until a confluence of 80-90%, washed with Versene (Invitrogen) and detached from the surface by a short incubation with 0.05% Trypsin (Invitrogen). The trypsination process was stopped by the addition of complete cell culture medium (DMEM, glutamax, 10% FCS, NEAA, Pen-Strep). Cells were collected and resuspended in Krebs buffer without Calcium at RT.
Prior the cell seeding (±2000 cells/well into a black, 384 well plate (Greiner)) the diluted compound was added in the assay plate, together with the PS dissolved in Krebs buffer containing Calcium. […] Directly after cell addition the plates were read on an Envision fluorescence reader (Perkin Elmer) by an Excitation of 485 nm and emission at 535 nm.
Channel inhibition was calculated compared to a non-PS stimulated control versus a condition stimulated with PS (50 μM) with vehicle. The ability of the compounds of the invention to inhibit this activity was determined as: Percentage inhibition=[1−((RFU determined for sample with test compound present−RFU determined for sample with positive control inhibitor) divided by (RFU determined in the presence of vehicle−RFU determined for sample with positive control inhibitor))]*100.
The activities of the Example compounds tested are depicted in the table below.

T1 sequence (J9SQF3 1-1709 isoform J9SQF3-12): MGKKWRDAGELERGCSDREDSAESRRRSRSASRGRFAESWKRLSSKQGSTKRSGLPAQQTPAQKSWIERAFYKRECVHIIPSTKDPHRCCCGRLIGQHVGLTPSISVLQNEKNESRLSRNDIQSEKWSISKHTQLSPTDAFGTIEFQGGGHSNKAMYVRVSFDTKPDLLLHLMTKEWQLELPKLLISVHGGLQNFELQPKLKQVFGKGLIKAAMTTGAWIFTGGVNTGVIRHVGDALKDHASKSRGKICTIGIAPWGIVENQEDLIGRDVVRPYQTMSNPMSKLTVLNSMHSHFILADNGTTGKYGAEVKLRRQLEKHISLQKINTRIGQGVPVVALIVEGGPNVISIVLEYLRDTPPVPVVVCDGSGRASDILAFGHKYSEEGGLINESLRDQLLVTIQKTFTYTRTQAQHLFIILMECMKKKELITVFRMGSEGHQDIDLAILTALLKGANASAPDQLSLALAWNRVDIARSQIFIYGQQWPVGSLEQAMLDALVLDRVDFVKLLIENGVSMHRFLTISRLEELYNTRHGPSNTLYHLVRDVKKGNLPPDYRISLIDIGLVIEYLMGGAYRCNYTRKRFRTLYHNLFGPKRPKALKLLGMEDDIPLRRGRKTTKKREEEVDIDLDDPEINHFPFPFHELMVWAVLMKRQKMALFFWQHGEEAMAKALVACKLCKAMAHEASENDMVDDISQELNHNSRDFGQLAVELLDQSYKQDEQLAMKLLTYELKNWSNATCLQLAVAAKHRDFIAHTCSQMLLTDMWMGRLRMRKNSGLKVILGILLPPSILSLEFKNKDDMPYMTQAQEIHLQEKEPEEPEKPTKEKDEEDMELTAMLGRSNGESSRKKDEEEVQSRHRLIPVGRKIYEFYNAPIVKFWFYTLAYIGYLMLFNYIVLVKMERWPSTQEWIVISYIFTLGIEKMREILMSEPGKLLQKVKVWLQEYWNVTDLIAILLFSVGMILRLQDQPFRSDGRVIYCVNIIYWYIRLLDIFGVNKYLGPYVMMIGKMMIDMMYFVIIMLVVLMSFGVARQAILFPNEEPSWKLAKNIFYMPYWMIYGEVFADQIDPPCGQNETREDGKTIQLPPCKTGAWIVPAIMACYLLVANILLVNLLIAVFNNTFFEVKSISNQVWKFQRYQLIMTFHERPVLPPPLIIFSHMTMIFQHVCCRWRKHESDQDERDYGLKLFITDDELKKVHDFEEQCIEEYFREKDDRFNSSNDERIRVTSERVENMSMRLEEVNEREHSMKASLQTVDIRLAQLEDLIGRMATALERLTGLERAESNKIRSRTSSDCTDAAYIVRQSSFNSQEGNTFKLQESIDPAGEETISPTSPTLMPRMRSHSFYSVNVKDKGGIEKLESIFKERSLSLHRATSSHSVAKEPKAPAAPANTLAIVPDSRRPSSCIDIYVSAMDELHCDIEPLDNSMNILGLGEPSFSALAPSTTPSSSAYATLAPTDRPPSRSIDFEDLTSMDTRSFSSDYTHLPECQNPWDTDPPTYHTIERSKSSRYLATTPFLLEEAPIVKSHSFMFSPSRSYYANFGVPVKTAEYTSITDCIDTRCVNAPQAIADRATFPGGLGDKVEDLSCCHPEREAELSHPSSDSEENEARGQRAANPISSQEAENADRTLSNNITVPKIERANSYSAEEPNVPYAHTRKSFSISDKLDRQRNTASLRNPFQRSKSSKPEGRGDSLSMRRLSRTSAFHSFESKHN

Broadly, the IC50 is the midpoint of a concentration-inhibition curve. Read a high IC50 as lower potency. In turn, `Cc1oc2ccc(OCc3ccccc3)cc2c1C(=O)NS(C)(=O)=O` [Cpd 063, 5-(benzyloxy)-2-methyl-N-(methylsulfonyl)benzofuran-3-carboxamide] came in with an IC50 of 1000 to 20000 nM.

`Cc1cccc(COc2ccc3oc(C)c(C(=O)O)c3c2)c1` [Cpd 005, 2-methyl-5-((3-methylbenzyl)oxy)benzofuran-3-carboxylic acid] showed an IC50 of less than 1000 nM.

With `Cc1oc2ccc(OCc3ccccc3)cc2c1C(=O)NC1CCN(C)C1` (stereo not drawn) [Cpd 076, 5-(benzyloxy)-2-methyl-N-(1-methylpyrrolidin-3-yl)benzofuran-3-carboxamide], the IC50 was less than 1000 nM.

The compound `Cc1oc2ccc(OCc3ccccc3)cc2c1C(=O)NC1CNCCC1F` (single isomer, unassigned) [Cpd 130-Dia 1] gave an IC50 of less than 1000 nM.

`Cc1oc2ccc(OCc3ccccc3)cc2c1C(=O)NC[C@H]1CCCO1` [Cpd 089, (R)-5-(benzyloxy)-2-methyl-N-((tetrahydrofuran-2-yl)methyl)benzofuran-3-carboxamide] returned an IC50 of 1000 to 20000 nM.

Compound `Cc1oc2ccc(OCc3ccccc3)cc2c1C(=O)NC1CCNCC1F` (stereo not drawn) [Cpd 131, 5-(benzyloxy)-N-(3-fluoropiperidin-4-yl)-2-methylbenzofuran-3-carboxamide] returned an IC50 of less than 1000 nM.

`Cc1oc2ccc(OCc3ccccc3)cc2c1C(=O)NC1CCCC1` [Cpd 046, 5-(benzyloxy)-N-cyclopentyl-2-methylbenzofuran-3-carboxamide] returned an IC50 of less than 1000 nM.

In turn, `Cc1oc2ccc(OCc3ccccc3)cc2c1C(=O)NC1CCN2CCCC12` (stereo not drawn) [Cpd 144, 5-(benzyloxy)-N-(hexahydro-1H-pyrrolizin-1-yl)-2-methylbenzofuran-3-carboxamide] came in with an IC50 of less than 1000 nM.

For `Cc1oc2ccc(OC(C)c3ccccc3C(F)(F)F)cc2c1C(=O)N[C@H]1CCN(C(=O)OC(C)(C)C)C1` (mixture of isomers) [Cpd 267, rac-tert-butyl (3R)-3-(2-methyl-5-(1-(2-(trifluoromethyl)phenyl)ethoxy)benzofuran-3-carboxamido)pyrrolidine-1-carboxylate], the IC50 is greater than 20000 nM.

Take `Cc1oc2ccc(OCc3ccccc3S(C)(=O)=O)cc2c1C(=O)NC1CCNCC1(F)F` (single isomer, unassigned) [Cpd 333-En 2, N-(3,3-difluoropiperidin-4-yl)-2-methyl-5-((2-(methylsulfonyl)benzyl)oxy)benzofuran-3-carboxamide]: the IC50 was less than 1000 nM.

Consider `Cc1oc2ccc(OCc3ccccc3)cc2c1C(=O)NC1CCN(C(C)C)CC1` [Cpd 185, 5-(benzyloxy)-N-(1-isopropylpiperidin-4-yl)-2-methylbenzofuran-3-carboxamide], for which the IC50 is less than 1000 nM.

`COC1CCC(NC(=O)c2c(C)oc3ccc(OCc4ccccc4)cc23)CC1` (stereo not drawn) [Cpd 159, 5-(benzyloxy)-N-(4-methoxycyclohexyl)-2-methylbenzofuran-3-carboxamide] gave an IC50 of 1000 to 20000 nM.

`Cc1oc2ccc(OCc3ccccc3)cc2c1C(=O)N[C@@H]1CCN(C(=O)OC(C)(C)C)C1` [Cpd 238, tert-butyl (R)-3-(5-(benzyloxy)-2-methylbenzofuran-3-carboxamido)pyrrolidine-1-carboxylate] registered an IC50 greater than 20000 nM.

`Cc1oc2cc(C#N)c(OCc3ccccc3)cc2c1C(=O)NC1CNCC1(F)F` (single isomer, unassigned) [Cpd 301-En 2, 5-(benzyloxy)-6-cyano-N-(4,4-difluoropyrrolidin-3-yl)-2-methylbenzofuran-3-carboxamide] displayed an IC50 greater than 20000 nM.

In the case of `Cc1oc2ccc(OCc3ccccc3)cc2c1C(=O)NC1CCC(C)CC1` (stereo not drawn) [Cpd 106, 5-(benzyloxy)-2-methyl-N-(4-methylcyclohexyl)benzofuran-3-carboxamide], the IC50 was greater than 20000 nM.

Compound `Cc1oc2ccc(OCc3c(F)cccc3F)cc2c1C(=O)N[C@H]1CCNC1` [Cpd 136, (S)-5-((2,6-difluorobenzyl)oxy)-2-methyl-N-(pyrrolidin-3-yl)benzofuran-3-carboxamide] gave an IC50 of less than 1000 nM.

With `Cc1oc2ccc(OCc3ccccc3)c(C)c2c1C(=O)NC1CNCC1(F)F` (single isomer, unassigned) [Cpd 299-En 1, 5-(benzyloxy)-N-(4,4-difluoropyrrolidin-3-yl)-2,4-dimethylbenzofuran-3-carboxamide], the IC50 is less than 1000 nM.

With `Cc1cccc(COc2ccc3oc(C)c(C(=O)NS(=O)(=O)C4CC4)c3c2)c1` [Cpd 170, N-(cyclopropylsulfonyl)-2-methyl-5-((3-methylbenzyl)oxy)benzofuran-3-carboxamide], the IC50 was in the range of 1000 to 20000 nM.

Consider `Cc1oc2cc(Cl)c(OCc3ccccc3)cc2c1C(=O)NC1CNCC1(F)F` (single isomer, unassigned) [Cpd 300-En 1, 5-(benzyloxy)-6-chloro-N-(4,4-difluoropyrrolidin-3-yl)-2-methylbenzofuran-3-carboxamide], for which the IC50 was in the range of 1000 to 20000 nM.

`Cc1oc2ccc(OCc3ccccc3)cc2c1C(=O)N1CCOCC1` [Cpd 050, (5-(benzyloxy)-2-methylbenzofuran-3-yl)(morpholino)methanone]: the IC50 was greater than 20000 nM.

Take `Cc1oc2ccc(OCc3ccccc3)cc2c1C(=O)N[C@@H]1CCNC1=O` [Cpd 070, 5-(benzyloxy)-2-methyl-N-(2-oxopyrrolidin-3-yl)benzofuran-3-carboxamide]: the IC50 was less than 1000 nM.

For `Cc1oc2ccc(OCc3ccccc3)cc2c1C(=O)NCCN1CCOCC1` [Cpd 165, 5-(benzyloxy)-2-methyl-N-(2-morpholinoethyl)benzofuran-3-carboxamide], the IC50 lay in the range of 1000 to 20000 nM.

As for `CNC(=O)c1c(C)oc2ccc(OCc3c(F)cccc3Cl)cc12` [Cpd 045, 5-((2-chloro-6-fluorobenzyl)oxy)-N,2-dimethylbenzofuran-3-carboxamide], the IC50 is less than 1000 nM.

Consider `Cc1oc2ccc(OCc3ccccc3)cc2c1C(=O)NC1CCCCC1` [Cpd 066, 5-(benzyloxy)-N-cyclohexyl-2-methylbenzofuran-3-carboxamide], for which the IC50 is less than 1000 nM.

Regarding `Cc1oc2ccc(OC(C)c3ccccc3)cc2c1C(=O)NC1(C(N)=O)CCC1` (single isomer, unassigned) [Cpd 343-En 1, N-(1-carbamoylcyclobutyl)-2-methyl-5-(1-phenylethoxy)benzofuran-3-carboxamide], the IC50 was less than 1000 nM.

On to `Cc1oc2ccc(OCc3ccccc3)cc2c1C(=O)NCC1(CO)COC1` [Cpd 128, 5-(benzyloxy)-N-((3-(hydroxymethyl)oxetan-3-yl)methyl)-2-methylbenzofuran-3-carboxamide], for which the IC50 was less than 1000 nM.

`Cc1oc2ccc(OCc3ccc(CN)cc3)cc2c1C(=O)NC1CCN(C)CC1` [Cpd 190, 5-((4-(aminomethyl)benzyl)oxy)-2-methyl-N-(1-methylpiperidin-4-yl)benzofuran-3-carboxamide] returned a half-inhibitory concentration (IC50) greater than 20000 nM.

The compound `Cc1oc2ccc(OCc3ccccc3)cc2c1C(=O)N[C@H]1CC[C@@H](N)CC1` [Cpd 116, N-(cis-4-aminocyclohexyl)-5-(benzyloxy)-2-methylbenzofuran-3-carboxamide] returned an IC50 of less than 1000 nM.

Turning to `CCN1CCC(NC(=O)c2c(C)oc3ccc(OCc4ccccc4)cc23)C1=O` (stereo not drawn) [Cpd 147, 5-(benzyloxy)-N-(1-ethyl-2-oxopyrrolidin-3-yl)-2-methylbenzofuran-3-carboxamide], the concentration for half-maximal inhibition (IC50) was less than 1000 nM.

For `Cc1oc2ccc(OCc3ccccc3)cc2c1C(=O)NC1CC(O)C1` (stereo not drawn) [Cpd 052, 5-(benzyloxy)-N-(3-hydroxycyclobutyl)-2-methylbenzofuran-3-carboxamide], the IC50 is less than 1000 nM.

`Cc1oc2ccc(OCc3cccc(F)c3F)cc2c1C(=O)NC1CNCC1(F)F` (stereo not drawn) [Cpd 211, 5-((2,3-difluorobenzyl)oxy)-N-(4,4-difluoropyrrolidin-3-yl)-2-methylbenzofuran-3-carboxamide] displayed an IC50 of less than 1000 nM.

As for `Cc1oc2ccc(OCc3cccc(F)c3)cc2c1C(=O)N[C@H]1CCNC1` [Cpd 096, (S)-5-((3-fluorobenzyl)oxy)-2-methyl-N-(pyrrolidin-3-yl)benzofuran-3-carboxamide], the IC50 was less than 1000 nM.

In turn, `Cc1oc2c(F)cc(OCc3ccccc3)cc2c1C(=O)NC1CNCC1(F)F` (single isomer, unassigned) [Cpd 306-En 1] showed an IC50 of less than 1000 nM.

`Cc1oc2ccc(OCc3ccccc3)cc2c1C(=O)N[C@@H]1C[C@H]2COC[C@@H](C1)N2C(=O)OC(C)(C)C` [Cpd 265, tert-butyl (1R,5S,7r)-7-(5-(benzyloxy)-2-methylbenzofuran-3-carboxamido)-3-oxa-9-azabicyclo-[3.3.1]nonane-9-carboxylate]: the IC50 is greater than 20000 nM.

Compound `CCCNC(=O)c1c(C)oc2ccc(OCc3ccccc3)cc12` [Cpd 040, 5-(benzyloxy)-2-methyl-N-propylbenzofuran-3-carboxamide] returned an IC50 of 1000 to 20000 nM.

For `Cc1oc2ccc(OCc3cccc(F)c3F)cc2c1C(=O)NC1CCNC1=O` (stereo not drawn) [Cpd 171, 5-((2,3-difluorobenzyl)oxy)-2-methyl-N-(2-oxopyrrolidin-3-yl)benzofuran-3-carboxamide], the IC50 was less than 1000 nM.
